We go through 15 compounds from patent US7825111B2, “Substituted spiroheterocycles” (Janssen Pharmaceutica NV, priority 2006, dated 2010).

The target in test [1] is T1, human V2 receptor (Homo sapiens, UniProt P30518). In words: In-vitro binding assay, 3H-arginine-8-vasopressin, V2 membranes. The following applies: membrane containing human V2 receptor; for IC50: 3H-vasopressin 0.65-0.75 nM; for inhibition at 0.2 µM: read-out: V2 (binding) Percent inhibition at 0.2 μM. As for the experimental part:
(§1) Assay buffer is 50 mM Tris-Cl, 5 mM MgCl2, 0.1% BSA (pH 7.5) containing 5 μg/ml of aprotinin, leupeptin, pepstatin, 50 μg/ml bacitracin, and 1 mM Pefabloc (4-(2-Aminoethyl)-benzenesulfonyl fluoride, hydrochloride manufactured by Roche Diagnostics Corporation, Indianapolis, Ind. and distributed by Boehringer Mannheim). H3 vasopressin is ^3H-arginine-8-vasopressin (NEN Life Sciences, Boston, Mass.; 68.5 Ci/mmol, final concentration in assay is 0.65-0.75 nM). Into wells of 96-well round bottom polypropylene plates are added buffer, test compound, membrane (containing human V1a or V2 receptor), and H3 vasopressin. The reaction plates are allowed to sit at room temperature for one hour. The samples are filtered through Unifilter GF/C plates (PerkinElmer Life Sciences, Boston, Mass.) presoaked in 0.3 polyethyleneimine. The plates are washed 5 times with cold physiological saline containing 0.05% Tween 20. After drying, the bottom of the filter plates are sealed and 0.025 ml of Microscint-20 (Packard Instrument Co, Meriden, Conn.) is added to each filter. The top of the plate is sealed, and the plate is counted. Non-specific binding is determined by the addition of 1.25 μM arginine-8-vasopressin in those wells. % Inh. is calculated as follows: % inhibition=100−100×peak response after drug/peak response before drug

Test [2] has as its target T2, human V1a receptor (Homo sapiens, UniProt P37288). In words: V1a vasopressin receptor functional activity (calcium mobilization, FLIPR, V1a-HEK cells). The following applies: inhibition of vasopressin-induced intracellular calcium mobilization in V1a-HEK cells. In kind it is cell-based. As for the experimental part:
The V1a receptor is a G-protein coupled receptor, which upon activation triggers an increase in intracellular calcium mobilization. To evaluate compounds for their functional V1a receptor activity, HEK-293 cells were transfected with the human V1a receptor (V1a-HEK cells). HEK-293 cells were grown in DMEM (Dulbecco's modified Eagle Media) supplemented with 10% FBS and glutamine. HEK-cells were passed biweekly by trypsinization and seeded into 96 well plates at 33,000 cells per well. HEK-293 cells were transfected with human V1a receptor DNA using DMRIE-C reagent from Life Technologies (Carlsbad, Calif.). Stable lines were generated by selecting cells grown in culture media containing geneticin. After growing in Packard Clear-View black 96 well plates for 4-6 days, V1a-HEK cells were loaded with the calcium-sensitive fluorescence dye, FLUO-3 AM. Changes in intracellular calcium mobilization were measured by quantitating intracellular fluorescence using FLIPR (Fluorometric Imaging Plate Reader; Molecular Devices, Sunnyvale, Calif.). Test compounds were first added to the cells and the resulting changes in fluorescence measured to detect receptor agonistic activity. Five minutes later the cells were challenged with vasopressin to test compounds for their antagonistic activity. Receptor antagonists inhibit the ability of vasopressin to stimulate increases in intracellular fluorescence. IC50's were calculated.
(In general: A change in cytosolic calcium serves as a functional read-out for many receptors and channels.)

In test [3] the target is T2, human V1a receptor. In words: In-vitro binding assay, 3H-arginine-8-vasopressin, V1a membranes. The note with it: membrane containing human V1a receptor; for inhibition at 0.2 µM: read-out: V1a (binding) Percent inhibition at 0.2 μM; for IC50: 3H-vasopressin 0.65-0.75 nM. How it is done:
as §1

Test [4] concerns the target T1, human V2 receptor. Kind of test: V2 vasopressin receptor functional activity (cAMP accumulation, V2-HEK cells). The following applies: inhibition of vasopressin-stimulated cAMP accumulation in V2-HEK cells. In kind it is cell-based. Further details: expressed in transfected cells; host or cells: HEK-293. As for the experimental part:
The V2 receptor is also a G-protein coupled receptor which when activated induces an increase in cAMP turnover. Antagonism against the V2 receptor is determined by measuring cAMP accumulation in transfected HEK-293 cells expressing the human V-2 receptor (V2-HEK cells). Compounds are tested for their ability to block the stimulatory effects of vasopressin on cAMP accumulation. The cell content of cAMP is measured by radioimmunoassay using NEN flashplates.

T2 sequence (P37288 whole entry): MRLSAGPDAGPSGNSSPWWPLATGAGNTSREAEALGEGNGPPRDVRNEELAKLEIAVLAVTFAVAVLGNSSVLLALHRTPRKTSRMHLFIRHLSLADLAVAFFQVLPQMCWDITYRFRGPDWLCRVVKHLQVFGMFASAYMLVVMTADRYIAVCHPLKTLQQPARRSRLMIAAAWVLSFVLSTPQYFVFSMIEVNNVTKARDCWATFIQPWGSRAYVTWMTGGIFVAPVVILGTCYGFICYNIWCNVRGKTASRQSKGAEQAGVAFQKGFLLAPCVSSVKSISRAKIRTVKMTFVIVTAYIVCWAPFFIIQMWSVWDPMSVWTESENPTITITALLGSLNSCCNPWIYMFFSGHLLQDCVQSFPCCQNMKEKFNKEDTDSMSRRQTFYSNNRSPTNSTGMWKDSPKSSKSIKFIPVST
T1 sequence (P30518 whole entry): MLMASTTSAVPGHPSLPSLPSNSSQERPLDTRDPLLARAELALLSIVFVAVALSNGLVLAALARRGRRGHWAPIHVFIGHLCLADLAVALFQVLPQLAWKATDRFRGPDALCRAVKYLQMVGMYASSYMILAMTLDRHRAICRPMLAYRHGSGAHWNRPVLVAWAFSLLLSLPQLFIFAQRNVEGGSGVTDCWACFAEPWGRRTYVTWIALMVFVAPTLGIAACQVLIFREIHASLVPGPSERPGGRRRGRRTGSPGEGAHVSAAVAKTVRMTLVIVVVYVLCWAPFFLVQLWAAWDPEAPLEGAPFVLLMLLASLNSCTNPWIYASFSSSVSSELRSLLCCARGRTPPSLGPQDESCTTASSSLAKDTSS

For orientation: IC50 means the concentration that gives 50% inhibition. The term inhibition denotes the drop in the measured response relative to a control, in per cent. `COc1cc(C(=O)N2CCC3(CCN(C)C3=O)Cc3ccccc32)ccc1NC(=O)c1cc(F)ccc1Cl` (stereo not shown) [Compound 39]: the results for the IC50 on human V2 receptor [1] and at human V1a receptor [2] were 8 nM and 0.07 µM, respectively. Besides, the inhibition at 0.2 µM on human V1a receptor [3] amounted to 58%.
With `O=C(Nc1ccc(C(=O)N2CCC3(CCNC3=O)Cc3ccccc32)cc1)c1cc(F)ccc1Cl` (stereo not shown) [Compound 18, Benzamide, 2-chloro-N-[4-{(2,3-dihydro-2′-oxospiro[4H-1-benzazepine-4,3-pyrrolidin}-1(5H)-yl)carbonyl}phenyl]-5-fluoro], the IC50 on human V2 receptor [1] is 150 nM; at human V1a receptor [2], 0.01 µM; on human V2 receptor [4] it was 0.226 µM; on human V1a receptor [3] it was 8 nM.
For the compound `O=C(Nc1ccc(C(=O)N2CCC3(CCNC3=O)Cc3ccccc32)cc1)c1ccccc1-c1ccccc1` (stereo not shown) [Compound 25, [1,1′-Biphenyl]-2-carboxamide, N-[4-[(2,3-dihydro-2′-oxospiro{4H-1-benzazepine-4,3′-pyrrolidin}-1(5H)-yl)carbonyl]phenyl}-], the IC50 on human V2 receptor [1] worked out at 18 nM; on human V1a receptor [2] it was 0.054 µM; against human V2 receptor [4], 0.062 µM; on human V1a receptor [3], 7 nM.
On to `O=C(O)CN1CCC2(CCN(C(=O)c3ccc(NC(=O)c4cc(F)ccc4Cl)cc3)c3ccccc3C2)C1=O` (stereo not shown) [Compound 23, Spiro{4H-1-benzazepine-4,3′-pyrrolidin}-1′-acetic acid, 1-[{(2-chloro-5-fluorobenzoyl)amino}benzoyl]1,2,3,5-tetrahydro-2′-oxo-], for which the inhibition at 0.2 µM at human V2 receptor [1] was 17%; on human V1a receptor [3], 27%.
On to `CN1CCCC2(CCN(C(=O)c3ccc(NC(=O)c4ccccc4-c4ccccc4)cc3)c3ccccc3C2)C1=O` (stereo not shown) [Compound 10, [1,1′-Biphenyl]-2-carboxamide, N-[4-[(2,3-dihydro-1′-methyl-2′-oxospiro{4H-1-benzazepine-4,3′-piperidin}-1(5H)-yl)carbonyl]phenyl}-], for which the IC50 at human V2 receptor [1] stood at 50 nM; at human V1a receptor [2], 0.38 µM; on human V1a receptor [3], 47 nM.
In the case of `CCOC(=O)CN1CCC2(CCN(C(=O)c3ccc(NC(=O)c4cc(F)ccc4Cl)cc3)c3ccccc3C2)C1=O` (stereo not shown) [Compound 22, Spiro{4H-1-benzazepine-4,3′-pyrrolidin}-1′-acetic acid, 1-[{(2-chloro-5-fluorobenzoyl)amino}benzoyl]1,2,3,5-tetrahydro-2′-oxo, ethyl ester], the inhibition at 0.2 µM at human V2 receptor [1] amounted to 17%; at human V1a receptor [3], 66%.
As for `O=C1CCCC2(CCN(C(=O)c3ccc(NC(=O)c4ccccc4-c4ccccc4)cc3)c3ccccc3C2)N1` (stereo not shown) [Compound 35, [1,1′-Biphenyl]-2-carboxamide, N-[4-[(2,3-dihydro-6′-oxospiro[4H-1-benzazepine-4,2′-piperidin]-1(5H)-yl)carbonyl]phenyl}-], the IC50 at human V2 receptor [1] was found to be 230 nM; at human V1a receptor [2] it was 0.05 µM; at human V2 receptor [4], 0.06 µM; on human V1a receptor [3], 45 nM.
Consider `O=C(Nc1ccc(C(=O)N2CCC3(CCCNC3=O)Cc3ccccc32)cc1)c1cc(F)ccc1Cl` (stereo not shown) [Compound 7, Benzamide, 2-chloro-N-[4-{(2,3-dihydro-2′-oxospiro[4H-1-benzazepine-4,3-piperidin}-1(5H)-yl)carbonyl}phenyl]-5-fluoro], for which the inhibition at 0.2 µM on human V2 receptor [1] turned out to be 63%. Moreover, the 50% inhibitory concentration (IC50) on human V1a receptor [2] is 0.05 µM; against human V2 receptor [4] it was 0.49 µM; at human V1a receptor [3] it was 9 nM.
On to `Cc1ccc(F)cc1C(=O)Nc1ccc(C(=O)N2CCC3(CCNC3=O)Cc3ccccc32)cn1` (stereo not shown) [Compound 38, Spiro{4H-1-benzazepine-4,3′-pyrrolidin}-[{(2-methyl-5-fluorobenzoyl)amino}nicotinoyl]1,2,3,5-tetrahydro-2′-oxo-], for which the concentration for half-maximal inhibition (IC50) on human V2 receptor [1] stood at 93 nM; at human V1a receptor [2], 0.13 µM; on human V2 receptor [4], 0.036 µM. The inhibition at 0.2 µM on human V1a receptor [3] was determined as 64%.
On to `Cc1ccc(F)cc1C(=O)Nc1ccc(C(=O)N2CCC3(CCNC3=O)Cc3ccccc32)cc1` (stereo not shown) [Compound 27, Spiro{4H-1-benzazepine-4,3′-pyrrolidin}-[{(2-methyl-5-fluorobenzoyl)amino}benzoyl]1,2,3,5-tetrahydro-2′-oxo-], for which the concentration for half-maximal inhibition (IC50) at human V2 receptor [1] worked out at 89 nM; on human V1a receptor [3] it was 15 nM.
As to `O=C(Nc1ccc(C(=O)N2CCC3(CCCNC3=O)Cc3ccccc32)cc1)c1ccccc1` (stereo not shown) [Compound 37, Benzamide, N-[4-{(2,3-dihydro-2′-oxospiro[4H-1-benzazepine-4,3-piperidin}-1(5H)-yl)carbonyl}phenyl]], the inhibition at 0.2 µM at human V2 receptor [1] turned out to be 23%. Also, the IC50 came to 0.12 µM at human V1a receptor [2] and 50 nM on human V1a receptor [3].
Regarding `CCN1CCCC2(CCN(C(=O)c3ccc(NC(=O)c4ccccc4-c4ccccc4)cc3)c3ccccc3C2)C1=O` (stereo not shown) [Compound 11, [1,1′-Biphenyl]-2-carboxamide, N-[4-[(2,3-dihydro-1′-ethyl-2′-oxospiro{4H-1-benzazepine-4,3′-piperidin}-1(5H)-yl)carbonyl]phenyl}-], the IC50 on human V2 receptor [1] is 61 nM; at human V1a receptor [2], 0.05 µM; against human V2 receptor [4] it was 0.132 µM; on human V1a receptor [3], 56 nM.
Regarding `O=C(Nc1ccc(C(=O)N2CCC3(CCCNC3=O)Cc3ccccc32)cc1)c1ccccc1F` (stereo not shown) [Compound 36, Benzamide, 2-fluoro-N-[4-{(2,3-dihydro-2′-oxospiro[4H-1-benzazepine-4,3-piperidin}-1(5H)-yl)carbonyl}phenyl]], the inhibition at 0.2 µM on human V2 receptor [1] amounted to 17%. Further, the IC50 on human V1a receptor [2] is 0.05 µM; at human V2 receptor [4], more than 3 µM; on human V1a receptor [3] it was 27 nM.
Take `O=C(Nc1ccc(C(=O)N2CCC3(CCNC3=O)Cc3ccccc32)cc1)c1ccccc1F` (stereo not shown) [Compound 26, Benzamide, 2-fluoro-N-[4-{(2,3-dihydro-2′-oxospiro[4H-1-benzazepine-4,3-pyrrolidin}-1(5H)-yl)carbonyl}phenyl]]: the IC50 worked out at 230 nM at human V2 receptor [1] and 160 nM on human V1a receptor [3].
With `CN1CCC2(CCN(C(=O)c3ccc(NC(=O)c4ccccc4-c4ccccc4)cc3)c3ccccc3C2)C1=O` (stereo not shown) [Compound 21, [1,1′-Biphenyl]-2-carboxamide, N-[4-[(2,3-dihydro-1′-methyl-2′-oxospiro{4H-1-benzazepine-4,3′-pyrrolidin}-1(5H)-yl)carbonyl]phenyl}-], the IC50 at human V2 receptor [1] amounted to 37 nM; on human V1a receptor [2], 0.08 µM; against human V2 receptor [4], 0.437 µM; at human V1a receptor [3], 43 nM.
